From US20190365719A1, “COMBINATION TREATMENTS OF HSP90 INHIBITORS FOR ENHANCING TUMOR IMMUNOGENICITY AND METHODS OF USE THEREOF” (Massachusetts Institute of Technology, priority 2018, published 2019)

Experiments:
[1] = system: KP lung tumors; assay: Lung tumor burden in KP mouse model of NSCLC; type: in vivo; conditions: KP mice, 0.5 mg/kg/day in drinking water for 4 weeks
Excerpt: A genetically engineered mouse model of non-small cell lung cancer (NSCLC) was used. Mice harboring a Cre-recombinase inducible oncogenic Kras, and a floxed p53 allele (KP) develop tumors following intratracheal administration of Cre recombinase. In addition, a hypermutant mouse model of NSCLC (KPM) was used in which mice have a floxed allele of the MutS homolog 2 (Msh2) gene, a critical component of DNA mismatch repair, in addition to the genetic modifications of the KP mouse model. These models enable the interrogation of Hsp90i strategies in a physiologically relevant NSCLC model with and without hypermutation.
KP and KPM mice were infected intratracheally with Adenovirus expressing Cre recombinase from an SPC promoter at a titer of 2×10^8 plaque forming units per mouse to initiate tumor formation. 8 weeks following tumor initiation, the cohort was randomized and vehicle (control) or Hsp90i (NVP-HSP990) was administered in the drinking water at a dose of 0.5 mg/kg/day for 4 weeks prior to analysis at 12 weeks post tumor induction.
Tumor burden was analyzed histologically on tumor sections stained with hemotoxylin and eosin (H&E) using standard protocols at the Koch Institute Histology Facility. Tumor burden was calculated by dividing the total area of tumor tissue over the total area of normal lung tissue present in each sample.

[2] = system: IFN-γ receptor KO and HSF1 knockout MC38 cells; assay: Flow cytometry of MHC-I on IFN-γ receptor KO and Hsf1 KO MC38 cells; type: cell-based, mouse
Procedure: Cell Culture MC38 cells were kindly provided by A. Sharpe from Dana Farber Cancer Institute. Cells were maintained in DMEM supplemented with 10% FBS and penicillin/streptomycin. Cells were confirmed negative for mycoplasma contamination by PCR-based assay. MC38 cells were seeded in 12 well plates at a density of 125,000 cells per well and allowed to attach for 24 hours, and then treated with the indicated concentrations of HSP90i (NVP-HSP990) or IFN-γ. For Ifngra knockout, control or sgRNA targeting Ifngra ([…]) were cloned into pLenti-CRISPRv2 (Addgene #52561). Lentivirus was produced with HEK293T cells and MC38 cells were transduced with standard protocols. Transduced cells were selected with 2 μg/mL puromycin for 72 hours. Selected cells were then treated with DMSO, 60 nM Hsp90i, 10 ng/mL Ifng, or the combination and analyzed by flow cytometry.
For analysis of MHC Class I surface expression, cells were seeded into 12 well plates (125,000/well). 24-hours later, cells were treated with the indicated concentrations of HSP90i (NVP-HSP990) or DMSO vehicle. 72-hours after treatment, cells were dissociated with Accumax (Innovative Cell Technologies) and each treatment condition was distributed into 2 wells of a 96 well plate. […] Cytometric data were plotted and analyzed with FloJo.

[3] = system: MC38 cells; assay: qRT-PCR of MHC Class I and immunoproteasome genes in MC38 cells; type: cell-based, mouse; conditions: 60 nM, 72 hours
Procedure: FIGS. 5A-5L are graphs showing low dose administration of HSP90i diversifies the antigen repertoire of tumor cells. FIG. 5A is a bar graph showing relative mRNA expression MHC Class I and immunoproteasome gene expression in MC38 cells treated for 72 hours with HSP90i (60 nM) based on qRT-PCR analysis. All treated samples were normalized to DMSO (Veh)=1 (n=3); FIG. 5B is a schematic depiction of the effect of HSP90i treatment on proteasome composition and ONX-0914 mode of action; FIG. 5C is a bar graph showing cell surface expression of MHC Class I on MC38 cells treated with vehicle or HSP90i in combination with DMSO or ONX-0914 (500 nM). Normalized values calculated based on the median fluorescence intensity of the baseline sample for DMSO- or ONX-0914-treated samples (n=3); FIG. 5D is a schematic overview of protocol for MHC Class I peptide profiling; motif analysis for amino acid enrichment of 8-mer (FIG. 5E) and 9-mer peptides (FIG. 5F) identified by mass spectrometry; FIG. 5G is a histogram depicting the size distribution of peptides identified by MHC Class I IP and mass spectrometry; FIG. 5H is a Venn diagram of the number of unique peptides identified in vehicle- and Hsp90i-treated samples. […]

COc1cccc(-c2cc(F)ccc2[C@H]2Cc3nc(N)nc(C)c3C(=O)N2)n1 [NVP-HSP990]
lung tumor burden versus vehicle [1]: no significant difference
MHC-I in IFN-γ receptor KO MC38 cells ([2]; 60 nM): induced MHC-I in IFN-γ receptor KO cells
MHC-I induction in HSF1 knockout MC38 cells ([2]; two knockout cell lines): HSF1 was not required for the induction of MHC-I
expression of immunoproteasome genes Psme1, Psme2, Psmb8, Psmb9, Psmb10 [3]: robustly induced
transcript levels of MHC Class I heavy chains H2-K1 and H2-D1 or light chain B2m [3]: did not alter transcript levels
